According to US10674755B2, “Organic Compounds” (GIVAUDAN SA, priority 2013, dated 2020):

What was measured:
[1] = Beef bouillon taste evaluation by a panel of experienced tasters
Procedure: A beef bouillon was prepared using bouillon cubes obtained from a local supermarket.

[2] = Mango-flavoured beverage taste evaluation by a panel of experienced tasters; settings: 0.5 ppm dosed to mango drink (mango flavour 0.05% w/w, mango juice 0.18% w/w, sugar 8% w/w, citric acid 0.1% w/w)
Procedure: A mango-flavoured beverage was prepared using a standard mango flavour (0.05% w/w), mango juice (0.18% w/w), sugar (8% w/w) and citric acid (0.1% w/w).

[3] = 0.5 ppm dosed to beef bouillon from bouillon cubes
[4] = 40 ppb added to beef bouillon from bouillon cubes

## CCCCC/C=C\C/C=C\C/C=C\C/C=C\CCCC(=O)NCCO [Example 10, N-(2-hydroxyethyl)arachidonamide]
[1]; [3]
  taste of the bouillon versus the reference (panel agreement): had more mouthfeel and tasted more salty and more umami than the reference
[1]; [4]
  taste of the bouillon versus the reference (panel agreement): tasted saltier, sweeter, more fatty and slightly more umami than the reference, and had more mouthfeel

## CC/C=C\C/C=C\C/C=C\CCCCCCCC(=O)NCCO [Example 8, N-(2-hydroxyethyl)linolenamide]
[1]; [4]
  taste of the bouillon versus the reference (panel agreement): tasted more fatty, and slightly more salty than the reference

## CCCCCCCC/C=C\CCCCCCCC(=O)NCCCSC [Example 2, N-(3-(methylthio)propyl)oleamide]
[2]
  taste of the mango drink versus the reference drink (panel agreement): tasted more tropical and more juicy than the reference drink

## CCCCCCCCCCCCCCCCCCCC(=O)NCCO [Example 9, N-(2-hydroxyethyl)eicosanamide]
[1]; [4]
  taste of the bouillon versus the reference (panel agreement): tasted more fatty, beefier and smoky, tasted more fully and had more body than the reference

## CCCCCCCC/C=C\CCCCCCCC(=O)NCCCC(N)=O [Example 6, N-(4-amino-4-oxobutyl)oleamide]
[1]; [3]
  taste of the bouillon versus the reference (panel agreement): tasted more full and had more mouthfeel than the reference

## CCCCCCCC/C=C\CCCCCCCC(=O)NCCC(C)C [Example 4, N-isopentyloleamide]
[2]
  taste of the mango drink versus the reference drink (panel agreement): tasted somewhat more astringent and fruity and had more body
